Laboratory results: US20060165798A1, “Oral osmotic dosage form having a high flux membrane” (priority 2005, published 2006)

Type: physicochemical
Procedure: The measured values for the tested systems were Δπ=245 atmospheres, A=2.41 cm^2, S=333 mg/ ml. Thickness of the membrane was measured directly with a table micrometer. Osmotic pressure was measured on saturated solutions of potassium chloride at 37° C. using a Knauer model VPO vapor pressure osmometer and standard reference solutions of known osmotic pressure for comparison. Surface area of the tablet core was determined by first measuring the dimensions of the tablet core and then calculating surface area using standard mensuration formulae. Drug solubility was determined by measuring the concentration of a saturated solution of potassium chloride by conductivity analysis using a conductivity meter and reference solutions of potassium chloride of known aqueous concentrations. Average release rate was calculated by measuring the mass of potassium chloride released per 2-hour intervals of time according to the experimental procedures described in Example 3. Then, the total mass of potassium chloride released was summed for all whole 2-hour intervals between 20% and 70% (100 mg to 350 mg of potassium chloride) of the initial dose present within the dosage form (500 mg). Finally, the total mass of drug released during these whole intervals was divided by the sum of these time intervals to arrive at the average release rate. […]

Which “drug solubility S” value (saturated aqueous solution) does the source give for [Cl-].[K+] [potassium chloride] here?
The value was 333 mg/mL.

And the “osmotic pressure Δπ” value (saturated solution at 37° C.)?
The value was 245 atmospheres.
